For one experiment, the target named is T1, BTK (Homo sapiens, UniProt Q06187).
T1 construct: purchased Upstate 14-552
The experiment in a line: In vitro BTK kinase assay: BTK-POLYGAT-LS assay. The experiment is classed as biochemical. The conditions noted are these: ATP 10 uM, polyGAT 100 nM, BTK 0.25 nM, 30 minutes. On the procedure: In vitro BTK kinase assay: BTK-POLYGAT-LS ASSAY. The purpose of the BTK in vitro assay was to determine compound potency against BTK through the measurement of IC50. Compound inhibition was measured after monitoring the amount of phosphorylation of a fluorescein-labeled polyGAT peptide (Invitrogen PV3611) in the presence of active BTK enzyme (Upstate 14-552), ATP, and inhibitor. The BTK kinase reaction was done in a black 96 well plate (costar 3694). For a typical assay, a 24 uL aliquot of an ATP/peptide master mix (final concentration; ATP 10 uM, polyGAT 100 nM) in kinase buffer (10 mM Tris-HCl pH 7.5, 10 mM MgCl2, 200 uM […], 5 mM DTT, 0.01% Triton X-100, and 0.2 mg/ml casein) was added to each well. Next, 1 uL of a 4-fold, 40× compound titration in 100% DMSO solvent was added, followed by adding 15 uL of BTK enzyme mix in 1× kinase buffer (with a final concentration of 0.25 nM). The assay was incubated for 30 minutes before being stopped with 28 uL of a 50 mM EDTA solution. Aliquots (5 uL) of the kinase reaction were transferred to a low volume white 384 well plate (Corning 3674), and 5 uL of a 2× detection buffer (Invitrogen PV3574, with 4 nM Tb—PY20 antibody, Invitrogen PV3552) was added. […] Time resolved fluorescence (TRF) on Molecular Devices M5 (332 nm excitation; 488 nm emission; 518 nm fluorescein emission) was measured.

Experiment [1] deals with T2, hERG (human ether-à-go-go-related gene) potassium channel (Homo sapiens, UniProt Q12809).
T2 construct: host or cells: HEK293
T2 sequence (Q12809 whole entry): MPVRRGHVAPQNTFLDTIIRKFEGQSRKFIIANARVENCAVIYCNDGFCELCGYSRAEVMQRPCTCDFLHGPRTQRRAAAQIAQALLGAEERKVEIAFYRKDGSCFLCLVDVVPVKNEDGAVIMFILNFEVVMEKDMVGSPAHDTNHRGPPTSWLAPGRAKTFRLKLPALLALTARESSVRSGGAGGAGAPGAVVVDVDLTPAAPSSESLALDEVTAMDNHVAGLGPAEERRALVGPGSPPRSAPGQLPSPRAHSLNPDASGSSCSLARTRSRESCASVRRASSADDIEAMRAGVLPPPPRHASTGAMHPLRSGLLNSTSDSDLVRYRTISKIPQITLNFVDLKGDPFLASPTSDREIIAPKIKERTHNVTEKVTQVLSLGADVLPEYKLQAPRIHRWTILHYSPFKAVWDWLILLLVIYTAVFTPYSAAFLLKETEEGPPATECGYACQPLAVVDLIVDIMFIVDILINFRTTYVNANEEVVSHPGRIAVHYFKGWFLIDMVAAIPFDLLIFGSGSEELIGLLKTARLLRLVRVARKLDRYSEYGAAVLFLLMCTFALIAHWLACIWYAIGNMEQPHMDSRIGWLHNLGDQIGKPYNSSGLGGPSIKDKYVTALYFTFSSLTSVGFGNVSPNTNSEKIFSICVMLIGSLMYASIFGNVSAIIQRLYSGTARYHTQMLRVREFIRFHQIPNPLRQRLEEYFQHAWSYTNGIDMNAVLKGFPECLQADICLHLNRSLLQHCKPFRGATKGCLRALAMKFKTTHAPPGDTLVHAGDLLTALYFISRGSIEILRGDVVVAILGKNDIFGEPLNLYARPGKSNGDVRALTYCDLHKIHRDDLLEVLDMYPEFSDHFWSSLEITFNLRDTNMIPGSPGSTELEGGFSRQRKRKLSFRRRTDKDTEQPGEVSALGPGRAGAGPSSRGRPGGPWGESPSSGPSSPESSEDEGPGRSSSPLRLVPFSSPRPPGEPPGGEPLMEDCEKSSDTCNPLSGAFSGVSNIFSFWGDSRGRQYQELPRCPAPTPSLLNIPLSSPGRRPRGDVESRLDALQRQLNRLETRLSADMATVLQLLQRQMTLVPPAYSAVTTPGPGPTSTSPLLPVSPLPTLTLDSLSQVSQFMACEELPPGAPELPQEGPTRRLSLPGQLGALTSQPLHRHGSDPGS
The experiment in a line: FastPatch/QPatch hERG inhibition assay in HEK293 cells. Format: cell-based. To be noted: HEK293 cells stably transfected with hERG cDNA, QPatch HT, IC50 estimated from hERG inhibition data. An excerpt:
The in vitro effects of provided compounds was investigated on the hERG (human ether-à-go-go-related gene) potassium channel current (a surrogate for IKr, the rapidly activating, delayed rectifier cardiac potassium current) expressed in human embryonic kidney (HEK293) cells stably transfected with hERG cDNA. Cells were placed in HEPES-buffered physiological saline solution in a glass-lined 96-well plate and loaded with appropriate amounts of test and control solutions for a duration of a 3-minute exposure at each concentration. Test compound was diluted in 0.3% DMSO. An automated parallel patch clamp system, QPatch HT (Sophion Bioscience A/S, Denmark), was used to evaluate at various concentrations (e.g., 10 μM). The IC50 values were estimated based on the hERG inhibition data. The study was performed at ChanTest (14656 Neo Parkway, Cleveland, Ohio). The QPatch screen is further described by Janzen and Bernasconi (eds.), High Throughput Screening, Methods and Protocols, Second Edition, vol. 565, chapter 10, pg. 209-223, 2009.

Experiment [2] has as its system collagen induced arthritis (CIA) in female Lewis rats. The experiment in a line: Rat collagen-induced arthritis model. The experiment is classed as in vivo. The conditions noted are these: oral gavage BID, therapeutic administration, read-out: Ankle histiopathology ED50. An excerpt:
The collagen induced arthritis (CIA) model in female Lewis rats requires primary T and B cell immune responses to type II collagen (CII) immunization for the development of a severe inflammatory disease (see Goldschmidt T J, Holmdahl R. Cell Immunol. 154(1):240-8, 1994; Helfgott, S. M., et al; Clin. Immunol. Immunopathol. 31:403, 1984; Holmdahl R. et al., J Autoimmun. 7(6):739-52, 1994; and Stuart, J. M., et al., J. Exp. Med. 155:1, 1982). Clinical disease onsets after a secondary CII challenge and the disease progresses over the following eight days.
Generally, female Lewis rats were immunized with bovine collagen type II in incomplete Freund's adjuvant. […] Clinical severity of arthritis was assessed by caliper measurements of ankles taken every day beginning on […].
Detailed protocol: Female Lewis rats were immunized subcutaneously with bovine collagen type II (1:1 emulsion of 2 mg/ml bovine CII in 0.01 N acetic acid: Incomplete Freund's Adjuvant) at three sites of back skin. […] Clinical severity of CIA was assessed by caliper measurements of ankles taken every day beginning on Day 9. […] Baseline ankle caliper measurements for established disease animals was assessed on day 1 of therapeutic dosing and animals were randomly assigned to treatment groups after confirmation of clinically disease onset (0.2751-0.2755 in). […]

The test system of experiment [3] is PLCγ2 phosphorylation in Ramos cells. The experiment in a line: BCR pathway activation: inhibition of phosphorylation of PLCγ2 in Ramos cells (electrochemiluminescence immunoassay). The experiment is classed as cell-based. The conditions noted are these: Homo sapiens, 2 hours compound, 10 μg/mL anti-IgM for 5 minutes, R^2=0.90. How it is done:
Protocol: One day before treatment, Ramos cells were plated at a density of 3×10^5 cells per well in 200 μl, of complete medium in a 96-well tissue culture filter plates (Millipore, Billerica, Mass.). On the day of treatment, used medium was removed by filtration and the cells re-suspended in 200 μL serum free medium containing serial compound dilutions and DMSO to 0.1%, then incubated for 2 hours at 37° C. Cells were stimulated for 5 minutes with 10 μg/mL goat anti-human IgM at 37° C. […] After washing with TBST, MSD read buffer was added and the luminescence was measured in an MSD SECTOR Imager 6000. Maximum response was determined as the average luminescence in wells containing stimulated cells treated with anti-IgM and DMSO. Minimal response was determined as the average luminescence in wells containing unstimulated cells treated with DMSO alone. The maximal and minimal values were used to normalize luminescence in compound treatment wells. The normalized values were plotted against compound concentration on a log scale then analyzed using Prizm software (GraphPad Software, Inc.). […]

Another experiment deals with Human CD19+ B cells. The experiment in a line: Inhibition of BCR (anti-IgM)-induced human B cell proliferation. To be noted: human CD19+ B cells from different donors, 10 μg/ml anti-IgM, 72 hours, CellTiter-Glo, read-out: IC50, anti-IgM-induced B cell cellular metabolism (proliferation). Format: cell-based. On the procedure: In this context, cellular metabolism directly correlates with cellular activation and proliferation, and can also reflect relative cell survival during proliferation. […] The results are shown graphically in FIG. 6.
Protocol: Human B cells were isolated from peripheral blood mononuclear cells or unpurified buffy coats using Ficoll-Hypaque gradients (Amersham) and negatively selected by magnetic cell sorting (Human B Cell Isolation Kit II, Miltenyi Biotec). Target cell purity was determined by flow cytometry by staining for markers of B cells, T cells and monocytes (CD19, CD3, CD14, respectively; BD Biosciences). Data was collected on a FACsCaliber flow cytometer and analyzed using FloJo software (BD Biosciences). […] Negatively selected human B cells were stimulated with 10 μg/mL anti-IgM F(ab′)2 (Jackson ImmunoResearch) in 96 well plates. […] B cells were stimulated for 72 hr at 37° C., 5% CO2. Proliferation was measured using the CellTiter-Glo reagent (Promega), as measured on a luminometer. Mean values were plotted against maximum proliferation and IC50 values were determine using GraphPad Prism v5 software.
(In general: Cellular ATP, detected with luciferase, serves as a proxy for viable cell number.)

Experiment [4] has as its system TNFα expression by FcγR-activated primary human macrophages. The experiment in a line: FcγR activation of primary human macrophages: TNFα expression. The experiment is classed as cell-based. To be noted: Macrophage, human monocyte derived macrophages, plate-bound IgG. An excerpt: (§1) FcγR activation of primary human macrophages. Autoantibody and immune-complex mediated activation through FcγR can be modeled by activation of macrophages with immobilized IgG. Primary human macrophages derived from GM-CSF treated monocytes up-regulate activation markers such as CD80, CD86, MHC antigens and the FcγRIII receptor. Human monocyte derived macrophages can be activated by plate-bound purified human IgG. This stimulation crosslinks the FcγRIII receptor and induces the secretion of pro-inflammatory cytokines such as TNFα, IL-6, IL 1β and MCP-1.
(§2) Generally, macrophages were cultured in plates previously incubated with purified IgG then washed. […] Cell culture supernatants were analyzed by ELISA for the expression of TNFα and IL-6.
(§3) Protocol: Human monocytes were isolated from buffy coats of healthy donors and negatively selected by magnetic cell sorting (Monocyte Isolation Kit II, Miltenyi Biotec). Purified monocytes were cultured in standard media supplemented with low-IgG FBS and 100 ng/mL GM-CSF for 5-7 days to induce macrophage differentiation. […] Supernatants were collected after 4 hrs and 18 hrs and analyzed for TNFα and IL-6, respectively.

In experiment [5] the test system is IL-6 expression by FcγR-activated primary human macrophages. The experiment in a line: FcγR activation of primary human macrophages: IL-6 expression. The conditions noted are these: Macrophage, human monocyte derived macrophages, plate-bound IgG. The experiment is classed as cell-based.
Description: as §1, §2, §3

Each structure is given as a SMILES string. Read-outs that look alike come from different tables or passages of the source.

T1 sequence (Q06187 whole entry): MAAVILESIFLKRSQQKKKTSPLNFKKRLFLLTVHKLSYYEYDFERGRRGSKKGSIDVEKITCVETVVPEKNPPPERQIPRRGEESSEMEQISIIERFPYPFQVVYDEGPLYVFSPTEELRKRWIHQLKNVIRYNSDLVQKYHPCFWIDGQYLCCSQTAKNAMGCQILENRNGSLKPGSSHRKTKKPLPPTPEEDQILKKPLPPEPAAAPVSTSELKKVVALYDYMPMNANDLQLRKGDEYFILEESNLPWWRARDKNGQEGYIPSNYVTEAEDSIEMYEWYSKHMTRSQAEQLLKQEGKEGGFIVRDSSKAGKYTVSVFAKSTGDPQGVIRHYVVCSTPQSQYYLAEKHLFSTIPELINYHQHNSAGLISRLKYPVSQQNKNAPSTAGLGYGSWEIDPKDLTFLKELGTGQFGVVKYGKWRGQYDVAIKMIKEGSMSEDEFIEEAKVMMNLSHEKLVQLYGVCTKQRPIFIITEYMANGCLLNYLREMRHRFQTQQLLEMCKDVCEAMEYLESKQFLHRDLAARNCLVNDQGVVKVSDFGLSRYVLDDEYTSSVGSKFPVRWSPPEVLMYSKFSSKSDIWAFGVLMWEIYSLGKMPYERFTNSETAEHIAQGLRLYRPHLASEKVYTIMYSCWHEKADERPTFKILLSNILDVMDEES

As a reminder, the ED50 is the dose at which the effect has come halfway, by size or by number of responders. For orientation: EC50 means the concentration giving half of the maximal effect. High values mean lower potency in that assay, low ones higher potency in that assay. On to `Nc1ncnc(N2CC[C@H](O)[C@@H](N3CCC[C@@H](Nc4cc(Cl)cc(C(F)(F)F)c4)C3=O)C2)c1F` [Compound I], for which the IC50 on BTK was 0.00197 µM; in experiment [1] it was 9.4 µM; in the experiment on Human CD19+ B cells, 0.26 µM; in experiment [4] (ELISA (FIG. 7A), read-out: IC50 for inhibition of TNFα) it was 1.08 µM; in experiment [4] (supernatants after 4 hrs, ELISA, read-out: IC50, inhibition of TNFα expression), 1.1 µM; in experiment [5] (ELISA (FIG. 7B), read-out: IC50 for inhibition of IL-6), 0.35 µM. Also, the IC50 in experiment [5] (supernatants after 18 hrs, ELISA, read-out: IC50, inhibition of IL-6 expression) was determined as 0.35 µM. In experiment [2], the 50% effective dose (ED50) came out at 4.08 mg/kg. In experiment [3], the response was half-maximal at 0.15 µM (EC50).

The values are drawn from patent US9353087B2, “Inhibitors of Bruton's tyrosine kinase” (Biogen Idec MA Inc., priority 2012, dated 2016).
